In US7109193B2, “Tricyclic diazepines tocolytic oxytocin receptor antagonists” (Wyeth, priority 2001, dated 2006):

Molecular target: T1, human oxytocin receptor (Homo sapiens, UniProt P30559)
T1 construct: host or cells: CHO cells (pcDNA3.1 vector)
T1 sequence (P30559 1-389): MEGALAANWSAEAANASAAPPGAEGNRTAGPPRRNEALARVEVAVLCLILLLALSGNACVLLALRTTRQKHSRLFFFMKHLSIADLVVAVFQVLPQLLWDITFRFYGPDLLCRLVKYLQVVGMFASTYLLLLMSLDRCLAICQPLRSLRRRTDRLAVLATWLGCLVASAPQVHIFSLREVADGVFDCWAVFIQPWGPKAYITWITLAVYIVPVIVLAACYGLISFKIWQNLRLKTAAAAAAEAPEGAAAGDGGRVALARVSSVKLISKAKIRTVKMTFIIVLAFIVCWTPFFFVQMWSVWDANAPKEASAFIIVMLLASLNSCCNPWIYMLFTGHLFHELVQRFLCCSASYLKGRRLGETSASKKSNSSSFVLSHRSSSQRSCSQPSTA
Assay: Oxytocin binding in Chinese Hamster Ovary cell membranes expressing human oxytocin receptors
Details: 100 nM, CHO cell membranes, [3H]oxytocin, values without parentheses, read-out: OT % inhibition @ 100% nM

Row | inhibition at 0.1 µM | SMILES
1 | 75% | COc1cccc(-c2ccc(C(=O)N3Cc4ccc(C(=O)N5CCCN(C)CC5)n4Cc4ccccc43)cc2OC)c1 [Example 70, {10-[(2,3′-Dimethoxy[1,1′-biphenyl]-4-yl)carbonyl]-10,11-dihydro-5H-pyrrolo[2,1-c][1,4]benzodiazepin-3-yl}(4-methyl-1,4-diazepan-1-yl)methanone]
2 | 30% | COc1cc(C(=O)N2Cc3ccc(C(=O)N4CCCN(C)CC4)n3Cc3ccccc32)ccc1-n1c(C)ccc1C [Example 307, {10-[4-(2,5-Dimethyl-1H-pyrrol-1-yl)-3-methoxybenzoyl]-10,11-dihydro-5H-pyrrolo[2,1-c][1,4]benzodiazepin-3-yl}(4-methyl-1,4-diazepan-1-yl)methanone]
3 | 28% | CCOc1ccccc1-c1cc(OC)c(C(=O)N2Cc3cccn3Cc3ccccc32)cc1Cl [Example 17, 10-{[6-Chloro-3-methoxy-2′-ethoxy[1,1′-biphenyl]-4-yl]carbonyl}-10,11-dihydro-5H-pyrrolo[2,1-c][1,4]benzodiazepine]
4 | 87% | COc1cc(C(=O)N2Cc3ccc(C(=O)N4CCN(CCCN(C)C)CC4)n3Cc3ccccc32)ccc1-c1ccccc1C [Example 250, {4-[3-(Dimethylamino)propyl]-1-piperazinyl}{10-[(2-methoxy-2′-methyl[1,1′-biphenyl]-4-yl)carbonyl]-10,11-dihydro-5H-pyrrolo[2,1-c][1,4]benzodiazepin-3-yl}methanone]
5 | 32% | COc1cc(C(=O)N2Cc3ccc(C(=O)n4ccnc4)n3Cc3ccccc32)ccc1-c1cccc2ccccc12 [Example 291, 1H-Imidazol-1-yl-{10-[3-methoxy-4-(1-naphthyl)benzoyl]-10,11-dihydro-5H-pyrrolo[2,1-c][1,4]benzodiazepin-3-yl}methanone]
6 | 67% | COc1cc(C(=O)N2Cc3ccc(C(=O)N4CCN(C)CC4)n3Cc3ccccc32)ccc1-c1cccc2ccccc12 [Example 55, {10-[3-Methoxy-4-(1-naphthyl)benzoyl]-10,11-dihydro-5H-pyrrolo[2,1-c][1,4]benzodiazepin-3-yl}(4-methyl-1-piperazinyl)methanone]
7 | 69% | COc1ccccc1-c1ccc(C(=O)N2Cc3ccc(C(=O)n4ccnc4)n3Cc3ccccc32)cc1C [Example 292, 1H-Imidazol-1-yl-{10-[(2′-methoxy-2-methyl[1,1′-biphenyl]-4-yl)carbonyl]-10,11-dihydro-5H-pyrrolo[2,1-c][1,4]benzodiazepin-3-yl}methanone]
8 | 65% | Cc1ccccc1-c1ccc(C(=O)N2Cc3ccc(C(=O)NCCCN(C)C)n3Cc3ccccc32)cc1 [Example 76, N-[3-(Dimethylamino)propyl]-10-[(2′-methyl[1,1′-biphenyl]-4-yl)carbonyl]-10,11-dihydro-5H-pyrrolo[2,1-c][1,4]benzodiazepine-3-carboxamide]
9 | 92% | COc1ccccc1-c1ccc(C(=O)N2Cc3ccc(C(=O)N4CCN(C)CC4)n3Cc3ccccc32)cc1C [Example 49, {10-[(2′-Methoxy-2-methyl[1,1′-biphenyl]-4-yl)carbonyl]-10,11-dihydro-5H-pyrrolo[2,1-c][1,4]benzodiazepin-3-yl}(4-methyl-1-piperazinyl)methanone]
10 | 71% | COc1cc(C(=O)N2Cc3ccc(C(=O)N4CCN(CCCN(C)C)CC4)n3Cc3ccccc32)ccc1-c1cccc2ccccc12 [Example 253, {4-[3-(Dimethylamino)propyl]-1-piperazinyl}{10-[3-methoxy-4-(1-naphthyl)benzoyl]-10,11-dihydro-5H-pyrrolo[2,1-c][1,4]benzodiazepin-3-yl}methanone]
11 | 80% | COc1cccc(-c2ccc(C(=O)N3Cc4ccc(C(=O)N5CCN(CCCN(C)C)CC5)n4Cc4ccccc43)cc2OC)c1 [Example 255, {10-[(2,3′-Dimethoxy[1,1′-biphenyl]-4-yl)carbonyl]-10,11-dihydro-5H-pyrrolo[2,1-c][1,4]benzodiazepin-3-yl}{4-[3-(dimethylamino)propyl]-1-piperazinyl}methanone]
12 | 24% | COc1cc(C(=O)N2Cc3ccc(C(=O)N4CCN(CCN(C)C)CC4)n3Cc3ccccc32)ccc1-n1c(C)ccc1C [Example 316, {4-[2-(Dimethylamino)ethyl]-1-piperazinyl}{10-[4-(2,5-dimethyl-1H-pyrrol-1-yl)-3-methoxybenzoyl]-10,11-dihydro-5H-pyrrolo[2,1-c][1,4]benzodiazepin-3-yl}methanone]
13 | 32% | COc1cc(C(=O)N2Cc3ccc(C(=O)N4CCN(CCN5CCOCC5)CC4)n3Cc3ccccc32)ccc1-n1c(C)ccc1C [Example 317, {10-[4-(2,5-Dimethyl-1H-pyrrol-1-yl)-3-methoxybenzoyl]-10,11-dihydro-5H-pyrrolo[2,1-c][1,4]benzodiazepin-3-yl}{4-[2-(4-morpholinyl)ethyl]-1-piperazinyl}methanone]
14 | 16% | COc1cc(C(=O)N2Cc3ccc(C(=O)NCCCn4ccnc4)n3Cc3ccccc32)ccc1-n1c(C)ccc1C [Example 312, 10-[4-(2,5-Dimethyl-1H-pyrrol-1-yl)-3-methoxybenzoyl]-N-[3-(1H-imidazol-1-yl)propyl]-10,11-dihydro-5H-pyrrolo[2,1-c][1,4]benzodiazepine-3-carboxamide]
15 | 74% | COc1cccc(-c2ccc(C(=O)N3Cc4ccc(C(=O)N5CCCN(C)CC5)n4Cc4ccccc43)cc2C)c1 [Example 64, {10-[(3′-Methoxy-2-methyl[1,1′-biphenyl]-4-yl)carbonyl]-10,11-dihydro-5H-pyrrolo[2,1-c][1,4]benzodiazepin-3-yl}(4-methyl-1,4-diazepan-1-yl)methanone]
16 | 86% | Cc1ccccc1-c1ccc(C(=O)N2Cc3ccc(C(=O)N4CCN(C)CC4)n3Cc3ccccc32)cc1 [Example 52, {10-[(2′-Methyl[1,1′-biphenyl]-4-yl)carbonyl]-10,11-dihydro-5H-pyrrolo[2,1-c][1,4]benzodiazepin-3-yl}(4-methyl-1-piperazinyl)methanone]
17 | 85% | Cc1ccccc1-c1ccc(C(=O)N2Cc3ccc(C(=O)NCCCN(C)C)n3Cc3ccccc32)cc1C [Example 73, N-[3-(Dimethylamino)propyl]-10-[(2,2′-dimethyl[1,1′-biphenyl]-4-yl)carbonyl]-10,11-dihydro-5H-pyrrolo[2,1-c][1,4]benzodiazepine-3-carboxamide]
18 | 16% | COc1cc(C(=O)N2Cc3ccc(C(=O)N4CCC(N5CCCCC5)CC4)n3Cc3ccccc32)ccc1-n1c(C)ccc1C [Example 311, {10-[4-(2,5-Dimethyl-1H-pyrrol-1-yl)-3-methoxy-benzoyl]-10,11-dihydro-5H-pyrrolo[2,1-c][1,4]benzodiazepin-3-yl}[4-(1-piperidinyl)-1-piperidinyl]-methanone]
19 | 48% | Cc1cc(C(=O)N2Cc3cccn3Cc3ccccc32)cc(C)c1-n1c(C)ccc1C [Example 30, [4-(2,5-Dimethyl-1H-pyrrol-1-yl)-3,5-dimethyl-phenyl][10,11-dihydro-5H-pyrrolo[2,1-c][1,4]benzodiazepin-10-yl]methanone]
20 | 78% | COc1cc(C(=O)N2Cc3ccc(C(=O)n4ccnc4)n3Cc3ccccc32)ccc1-c1ccccc1C [Example 290, 1H-Imidazol-1-yl-{10-[(2-methoxy-2′-methyl[1,1′-biphenyl]-4-yl)carbonyl]-10,11-dihydro-5H-pyrrolo[2,1-c][1,4]benzodiazepin-3-yl}methanone]
21 | 91% | COc1ccccc1-c1ccc(C(=O)N2Cc3ccc(C(=O)N4CCCN(C)CC4)n3Cc3ccccc32)cc1C [Example 62, {10-[(2′-Methoxy-2-methyl[1,1′-biphenyl]-4-yl)carbonyl]-10,11-dihydro-5H-pyrrolo[2,1-c][1,4]benzodiazepin-3-yl}(4-methyl-1,4-diazepan-1-yl)methanone]
22 | 64% | COc1cccc(-c2cc(OC)c(C(=O)N3Cc4ccc(C(=O)N[C@@H](CCCCNC(=O)OC(C)(C)C)C(N)=O)n4Cc4ccccc43)cc2Cl)c1 [Example 302, tert-Butyl (5S)-6-amino-5-[({10-[(6-chloro-3,3′-dimethoxy[1,1′-biphenyl]-4-yl)carbonyl]-10,11-dihydro-5H-pyrrolo[2,1-c][1,4]benzodiazepin-3-yl}carbonyl)amino]-6-oxohexylcarbamate]
23 | 66% | COc1ccccc1-c1ccc(C(=O)N2Cc3ccc(C(=O)NCCCN(C)C)n3Cc3ccccc32)cc1 [Example 75, N-[3-(Dimethylamino)propyl]-10-[(2′-methoxy[1,1′-biphenyl]-4-yl)carbonyl]-10,11-dihydro-5H-pyrrolo[2,1-c][1,4]benzodiazepine-3-carboxamide]
24 | 25% | CN1CCCN(C(=O)c2ccc3n2Cc2ccccc2N(C(=O)c2ccc(-c4cccc5ccccc45)cc2Cl)C3)CC1 [Example 71, {10-[2-Chloro-4-(1-naphthyl)benzoyl]-10,11-dihydro-5H-pyrrolo[2,1-c][1,4]benzodiazepin-3-yl}(4-methyl-1,4-diazepan-1-yl)methanone]

Row | SMILES | inhibition at 0.1 µM
25 | COc1ccccc1-c1ccc(C(=O)N2Cc3ccc(C(=O)N[C@H]4CN5CCC4CC5)n3Cc3ccccc32)cc1 [Example 296, N-[(3R)-1-Azabicyclo[2.2.2]oct-3-yl]-10-[(2′-methoxy[1,1′-biphenyl]-4-yl)carbonyl]-10,11-dihydro-5H-pyrrolo[2,1-c][1,4]benzodiazepine-3-carboxamide] | 88%
